Assay results: patent US7666901B2, “Analogs of 17-hydroxywortmannin as PI3K inhibitors” (Wyeth, priority 2004, dated 2010)

Assays:
[1] = test system: MDA468 (human breast cancer cell); assay: Cell proliferation (MTS) assay, MDA468; type: cell-based; settings: three days treatment
Procedure, shortened: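 Cells plated at about 3000 per well in RPMI-1640/10% FBS were dosed with compound one day later. Viability was read by MTS conversion (absorbance 490 nm, 1–2 h) three days after treatment began. Effect is expressed as percent of vehicle-treated growth on the same plate.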

PI3K = test system: T1, PI3K; assay: Fluorescence polarization assay for PI3K; type: biochemical
T1 construct: PI3K FP IC50
Procedure, shortened: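 PI3K was preincubated with compound at 1% DMSO final, then reacted with PIP2/ATP substrate for 30-60 min. The reaction was stopped with a detector mix giving 10 nM red probe and 70 nM GST-GRP. Fluorescence polarization (mP, Tamra filters) was read 30-90 min later and IC50 determined.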

Compound: COC[C@H]1OC(=O)/C(=C/N(CCO)C(C)(C)C)C2=C(O)C(=O)C3=C([C@H](OC(C)=O)C[C@@]4(C)C3CC[C@@H]4O)[C@]21C (stereo partly drawn) [Compound 4, (1E,4S,4aR,5R,6aS,7S)-1-{[tert-butyl(2-hydroxyethyl)amino]methylene}-7,11-dihydroxy-4-(methoxymethyl)-4a,6a-dimethyl-2,10-dioxo-1,2,4,4a,5,6,6a,7,8,9,9a,10-dodecahydroindeno[4,5-h]isochromen-5-yl acetate]
- MDA468 IC50 ([1]; Table 1): 0.3 µg/mL
- MDA468 IC50 ([1]; Table 2): 0.51 µg/mL
- PI3K FP IC50 (PI3K; Table 1): 0.596 µg/mL
- IC50 (PI3K; Table 2): 1 µM
